The values that follow come from patent publication US20240216338A1, “NEW FORMULATIONS AND USES” (ALZECURE PHARMA AB, priority 2021, published 2024).

Read-outs that look alike come from different tables or passages of the source. Where no end group is shown, it is not given here.

The subject of data set [1] is healthy volunteers. The following applies: difference from placebo, cited from earlier work.
Data set [2] has as its system healthy volunteers. The following applies: difference from placebo, cited from earlier work. This is another data set of the same source.
For data set [3], the system named is healthy volunteers. The settings on record: for Cohen's d, VAS (0-5 min): Capsaicin, 95 mg oral vs placebo.
In data set [4] the test system is healthy volunteers. Nature of the data set: Laser algesimetry, laser evoked potentials (LEP), N2-P2 Peak-to-Peak amplitude. The format is in vivo, human. The following applies: for PtP Mean Difference: topical, difference from placebo, day 4 (AUC). On the procedure: Healthy volunteers were screened for eligibility from Day −28 to Day −2 before first treatment. During screening also, a training session (without study medication) was performed in order to introduce subjects to the testing and rating procedures. Prior to testing the laser evoked potentials (LEPs) from healthy skin, the individual Laser Pain Threshold (LPT) was be determined for each volunteer.
(§1) At Day 1, Areas 1-4 were treated with 1 ml of the Compound 1 Gel (0.05 ml/cm^2) or placebo and were tested for changes in LEP-amplitudes and Visual Analog Scale Rating of Pain (VAS-P). Assessments were performed before and after (investigational medicinal product) IMP application. At Days 2 and 3, LEPs and VAS-P assessments will also be performed before and 1 h after the second and third application of IMP at the same time as on Day 1 (±1 h). At test Day 4, LEPs and VAS-P were evaluated for areas 1-4 at 1, 6 and 9 h after the 4th IMP application.
At the 2 h time point on Day 4, skin areas 5 and 6 will be UVR irradiated with 2 MED. LEPs, VAS-P, erythema (by skin reflection spectrometry (SRS)) and pin prick hyperalgesia (by weighted needle threshold (WNT)) were evaluated before and 1, 2, 3, 6 and 9 h after UVR. At the same time points, anti-inflammatory effects on the areas of UVR will be evaluated by SRS with the a-value being the measure of “redness”. […] One hour after IMP application and 24±1 h after UVR, LEPs and VAS-Pain were evaluated on areas 1-6. In addition, erythema (SRS) and pin prick hyperalgesia (WNT) were evaluated on areas 5 and 6. […]
Laser algesimetry is an experimental induction of pain by means of a contact-free thermo-nociceptive laser beam with a constant short duration (ms) and individually adjusted intensity above the pain threshold (determined at Screening). Objective and quantitative measurement of nociception is accomplished by the analysis of the contingent vertex EEG event-related potentials (somatosensory/radiant heat ERPs).
The study effects of the study medications (the Compound 1 Gel and placebo) were measured as a reduction in the PtP amplitude. […]

Data set [5] relates to patients undergoing surgical removal of a mandibular third molar. Nature of the data set: Molar extraction study (legacy), oral AZD1386, pain intensity VAS. It counts as in vivo, human. The settings on record: 95 mg oral vs placebo. The method, then:
This was a single dose, randomised, double-blind, double dummy, placebo- and Naproxen controlled study to investigate the analgesic efficacy of AZD1386 95 mg in patients undergoing surgical removal of a partially or completely impacted mandibular third molar, where bone removal was judged to be needed. Naproxen 500 mg was included as a treatment arm, for assay sensitivity only.
Patients requesting pain relief, due to pain from the dental surgical area, within 6 hours after the end of the administration of the local anaesthetic (last anaesthetic dose) were randomised to 1 of 3 treatment arms: 40 patients received AZD1386 95 mg oral solution and Naproxen placebo capsule, 40 patients received AZD1386 placebo oral solution and Naproxen placebo capsule and 23 patients received AZD1386 placebo oral solution and Naproxen 500 mg (for assay sensitivity only). A visual Analogue Scale (VAS) was used for the assessment of pain intensity and pain on jaw movement. The VAS consists of an ungraduated 100 mm horizontal line with the left end (0 mm) marked “No pain” and the right end (100 mm) marked “Worst pain imaginable”. The patient indicated his/her present pain intensity and pain on jaw movement by drawing a vertical line across the scale on paper CRF pages. The pain intensity was rated by the patients immediately prior to administration of the investigational product, and subsequent assessments were performed at 15 min, 30 min, 45 min, 1 h, 1 h15 min, 1 h30 min, 1 h45 min, 2 h, 2 h30 min, 3 h, 4 h, 5 h, 6 h, 7 h, and 8 h after the start of administration of the investigational product.

For data set [6] the following is noted: oral medication; Quiding et al. PAIN 154 (2013); cited from earlier work.
The subject of data set [7] is healthy volunteers. Nature of the data set: tolerability in the clinical study. The following applies: normal skin, skin with a compromised barrier function and inflamed skin.
Data set [8] concerns healthy volunteers. Nature of the data set: VAS-Pain (post-laser pain). The format is in vivo, human. The following applies: for Mean (LEP induced VAS pain): n=24; for VAS Mean Difference: topical, difference from placebo, day 4 (AUC). On the procedure:
as §1
At the 2 h time point on Day 4, skin areas 5 and 6 will be UVR irradiated with 2 MED. LEPs, VAS-P, erythema (by skin reflection spectrometry (SRS)) and pin prick hyperalgesia (by weighted needle threshold (WNT)) were evaluated before and 1, 2, 3, 6 and 9 h after UVR. At the same time points, anti-inflammatory effects on the areas of UVR will be evaluated by SRS with the a-value being the measure of “redness”. Subjects returned on Day 5 for the 5th IMP application. One hour after IMP application and 24±1 h after UVR, LEPs and VAS-Pain were evaluated on areas 1-6. In addition, erythema (SRS) and pin prick hyperalgesia (WNT) were evaluated on areas 5 and 6. Subjects returned for a follow-up visit at Day 9 (±1).
VAS-Pain is a subjective assessment of pain, which was used for all skin conditions. Electronic nociceptive scoring with electronic 100-mm visual analog scales (VASs) for post-laser pain (VAS-P) was assessed on a tablet PC, which allowed the subject to discriminate pain severity between no pain and strong pain using a 0 to 100 mm scale. The measurements were taken after each laser session—summarizing the overall impression of the “painfulness” of the whole session.
The statistical analysis was based on the evaluation of treatment related differences at the individual time points and comparison of the AUC (Area Under the Curve) parameter derived from the efficacy endpoints.
The timepoints to be included in the calculation of the AUC depended on the objective. • 1. For evaluating objective a) and b) (treatment areas 1-4), two AUC calculations were used • a. All evaluations at 1 h after IMP application at Days 1-5, the assessment at predose on Day 1 served as reference. • b. Evaluations at all timepoints at Day 4 and before IMP application on Day 5 • 2. For evaluating objective c) and d) all timepoints at Day 4 and the assessments before IMP application on Day 5 will be included in the calculation of the AUC related to treatment areas (treatment area 5 and 6).
Those parameters were analysed using a linear mixed regression model. The regression included the classification variable treatment (A1, A2, B1 and B2 resp. A3 and B3) and the corresponding baseline value (pre dose measurement on normal skin) as fixed effects and the intercept over the subjects as a random effect.
All treatment differences with 95% confidence intervals were estimated from this model. The null-hypotheses that these differences are equal to zero (no difference between active treatments and placebo) were tested at the 5% level against the two-sided alternatives.
Data used from study described in Example 2 for calculating Cohen's D were taken at the 1, 6 and 9 hour time points on day 4 of the study and are shown in the table below. The standard deviation (SD) was derived from the standard error (SE) taking into account the sample size of n=24.

For another data set, the system named is mice. The following applies: topical, WO 2018/048779; cited from earlier work.
Where [9] appears, read: Duloxetin 60 mg (oral), Schaffler et al. (2017).
Setting [10] is: Pregabalin 150 mg (oral), Schaffler et al. (2017).
Setting [11] is: Etoricoxib 90 mg (oral), Schaffler et al. (2013).
Setting [12] is: Lacosamide 60 mg (oral), Schaffler et al. (2017).
Where [13] appears, read: Tramadol 100 mg (oral), Schaffler et al. (2013).

In the case of `CNCC[C@H](Oc1cccc2ccccc12)c1cccs1` [Duloxetin], the “VAS Mean Difference” value in the data set on healthy volunteers [1] (setting [9]) is listed as 2.2 mm. The “PtP Mean Difference” value in the data set on healthy volunteers [2] (setting [9]) is 1.7 μV.
`CC(C)C[C@H](CN)CC(=O)O` [Pregabalin]: the “VAS Mean Difference” value in the data set with healthy volunteers [1] (setting [10]) is reported as 9.1 mm. In addition, the “PtP Mean Difference” value in the data set on healthy volunteers [2] (setting [10]) was 2.7 μV.
Consider `C[C@H](NC(=O)Cn1cnc2ccc(F)c(F)c21)c1ccc(C(C)(C)C)cc1` [Compound 1], for which the “Cohen's d, VAS (0-5 min)” value in the data set on healthy volunteers [3] (01:08 h after IMP) turned out to be 0.04; in the data set on healthy volunteers [3] (01:38 h after IMP, listed as AZD1386) it was 0.3; with healthy volunteers [3] (02:38 h after IMP) it was 0.06; with healthy volunteers [3] (03:38 h after IMP) it was 0.22; with healthy volunteers [3] (05:08 h after IMP) it was 0.15. In the data set with healthy volunteers [3] (oral, consistent across the two legacy studies), the “time of significant analgesic effects after oral administration” value lay within 1 to 1.5 h. The “PtP Mean Difference” value with healthy volunteers [4] (normal skin) was found to be 6.8 μV; in the data set with healthy volunteers [4] (optimised skin), 9.1 μV. Besides, in the data set on healthy volunteers [4] (normal, optimized and UVR inflamed skin), the “analgesic effects of topical treatment” value is “highly superior to placebo”. The “Cohen's d, VAS (vs basel.)” value is 0.66 in data set [5] (01:00 h after IMP); 0.12 in [5] (01:30 h after IMP); “in favour” in data set [5] (02:30 h after IMP); “in favour” in data set [5] (03:00 h after IMP); “in favour” in data set [5] (04:00 h after IMP); “in favour” in [5] (05:00 h after IMP). Moreover, the “Cohen's d, VAS (vs basel.)” value in data set [5] (06:00 h after IMP) is on record as “in favour”. In addition, the liver enzymes entry in [6] was “elevations in liver enzymes”. Further, the tolerability entry in the data set with healthy volunteers [7] is given as “well tolerated”. The “Mean (LEP induced VAS pain)” value in the data set on healthy volunteers [8] (Day 4, 1 h, Normal skin) was determined as 32.63 mm; in the data set with healthy volunteers [8] (Day 4, 1 h, Optimized skin), 22.56 mm; with healthy volunteers [8] (Day 4, 6 h, Normal skin), 32.41 mm; in the data set with healthy volunteers [8] (Day 4, 6 h, Optimized skin), 28.01 mm; in the data set with healthy volunteers [8] (Day 4, 9 h, Normal skin), 35.64 mm; with healthy volunteers [8] (Day 4, 9 h, Optimized skin), 32.27 mm. Also, the “VAS Mean Difference” value was found to be 13.2 mm with healthy volunteers [8] (normal skin) and 18.7 mm with healthy volunteers [8] (optimised skin).
With `CC(C)(C)c1ccc(/C=C/C(=O)Nc2ccc3c(c2)OCCO3)cc1` [AMG9810], the capsaicin-induced wound licking result in the data set with mice is reported as “reduced”.
For QRFSR [opiorphin], the capsaicin-induced wound licking result in the data set with mice is recorded as “reduced”.
`Cc1ccc(-c2ncc(Cl)cc2-c2ccc(S(C)(=O)=O)cc2)cn1` [Etoricoxib]: the “VAS Mean Difference” value with healthy volunteers [1] (setting [11]) is 1.2 mm. In the data set with healthy volunteers [2] (setting [11]), the “PtP Mean Difference” value is listed as 0.2 μV.
`COC[C@@H](NC(C)=O)C(=O)NCc1ccccc1` [Lacosamide]: in the data set on healthy volunteers [1] (setting [12]), the “VAS Mean Difference” value was 2.1 mm. For the same compound, in the data set with healthy volunteers [2] (setting [12]), the “PtP Mean Difference” value is given as 0.5 μV.
As for `COc1cccc(C2(O)CCCCC2CN(C)C)c1` (centres unmarked) [Tramadol], the “VAS Mean Difference” value with healthy volunteers [1] (setting [13]) is 7.1 mm. Moreover, the “PtP Mean Difference” value in the data set on healthy volunteers [2] (setting [13]) is 4.5 μV.
